From ChEMBL document CHEMBL3425494, “Design, synthesis, and antitumor evaluation of novel histone deacetylase inhibitors equipped with a phenylsulfonylfuroxan module as a nitric oxide donor” (J Med Chem, 2015)

Tests used:
[1] = Cytotoxicity against human U937 cells assessed as growth inhibition after 48 hrs by MTT assay; type: functional, cell-based; details: U-937, 48 h
[2] = Cytotoxicity against human KG1 cells assessed as growth inhibition after 48 hrs by MTT assay; type: functional, cell-based; details: KG-1, 48 h
HeLa = experiment: Cytotoxicity against human HeLa cells assessed as growth inhibition after 48 hrs by MTT assay; type: functional, cell-based
[3] = Cytotoxicity against human ES2 cells assessed as growth inhibition after 48 hrs by MTT assay; type: functional, cell-based; details: ES-2, 48 h
HEL [4] = experiment: Cytotoxicity against human HEL cells assessed as growth inhibition after 48 hrs by MTT assay; type: functional, cell-based
[5] = biological target: Histone deacetylase (HDAC1 and HDAC2) (Homo sapiens, UniProt Q13547+Q92769); experiment: Inhibition of HDAC1/HDAC2 in human HeLa cells using Boc-Lys(acetyl)-AMC as substrate after 30 mins by fluorescence assay; type: cell-based
[6] = Cytotoxicity against human MDA cells assessed as growth inhibition after 48 hrs by MTT assay; type: functional, cell-based
[7] = Cytotoxicity against human HCT116 cells assessed as growth inhibition after 48 hrs by MTT assay; type: functional, cell-based; details: HCT-116, 48 h
[8] = Cytotoxicity against human 3AO cells assessed as growth inhibition after 48 hrs by MTT assay; type: functional, cell-based
HEL [9] = experiment: Cell cycle arrest in human HEL cells assessed as accumulation at G2 phase at 0.5 uM after 48 hrs by propidium iodide staining-based flow cytometric analysis (reference value: 5.28%); type: functional
HEL [10] = experiment: Cell cycle arrest in human HEL cells assessed as accumulation at G1 phase at 0.5 uM after 48 hrs by propidium iodide staining-based flow cytometric analysis (reference value: 47.87%); type: functional
HEL [11] = experiment: Cell cycle arrest in human HEL cells assessed as accumulation at S phase at 0.5 uM after 48 hrs by propidium iodide staining-based flow cytometric analysis (reference value: 46.88%); type: functional
HEL [12] = experiment: Cytotoxicity against human HEL cells assessed as growth inhibition after 48 hrs by MTT assay in presence of SAHA; type: functional, cell-based

Compound | IC50 [5] | IC50 [1] | IC50 [2] | IC50 (HeLa) | IC50 [3] | IC50 (HEL [4]) | IC50 [6] | IC50 [7] | IC50 [8] | Activity (HEL [9]) | Activity (HEL [10]) | Activity (HEL [11]) | IC50 (HEL [12])
O=C(NO)c1ccc(Oc2no[n+]([O-])c2S(=O)(=O)c2ccccc2)cc1 | 0.047 µM | 4.73 µM | 1.24 µM | 1.73 µM | 2.19 µM | 0.92 µM | 6.66 µM | 2.7 µM | 4.35 µM | – | – | – | –
O=C(COCCOCCOc1no[n+]([O-])c1S(=O)(=O)c1ccccc1)NO | 4.3 µM | 12.1 µM | 5.38 µM | 5.14 µM | 18.1 µM | 3.73 µM | 15.8 µM | 11.7 µM | 19.4 µM | – | – | – | –
O=C(CCCCCCC(=O)Nc1ccccc1)NO [VORINOSTAT] | – | – | – | – | – | – | – | – | – | 0% | – | 20.02% | –
O=C(CCCOc1no[n+]([O-])c1S(=O)(=O)c1ccccc1)NO | 0.047 µM | 3.3 µM | 1.48 µM | 4.79 µM | 3.78 µM | 0.67 µM | 6.2 µM | – | 22 µM | – | – | – | –
O=C(/C=C/c1ccc(Oc2no[n+]([O-])c2S(=O)(=O)c2ccccc2)cc1)NO | 0.15 µM | 16.1 µM | 2.75 µM | 10.4 µM | 24.1 µM | 2.41 µM | 25.6 µM | 8.09 µM | 38.1 µM | – | – | – | –
O=S(=O)(c1ccccc1)c1c(OCCCCCCO)no[n+]1[O-] | > 1000 µM | – | – | – | – | 2.16 µM | – | – | – | – | – | – | –
COc1cc(C(=O)NO)ccc1Oc1no[n+]([O-])c1S(=O)(=O)c1ccccc1 | 7.3 µM | 3.64 µM | 1.65 µM | 2.26 µM | 3.55 µM | 5.55 µM | 8.02 µM | 5.03 µM | 1.24 µM | – | – | – | –

The next lines start with results.

IC50 [5] | Compound | IC50 [1] | IC50 [2] | IC50 (HeLa) | IC50 [3] | IC50 (HEL [4]) | IC50 [6] | IC50 [7] | IC50 [8] | Activity (HEL [9]) | Activity (HEL [10]) | Activity (HEL [11]) | IC50 (HEL [12])
0.063 µM | O=C(CCCCCCCOc1no[n+]([O-])c1S(=O)(=O)c1ccccc1)NO | 9.3 µM | 0.63 µM | 5.03 µM | 1.32 µM | 10.8 µM | 2.7 µM | – | – | – | – | – | –
> 1000 µM | CCCC(C)(COc1no[n+]([O-])c1S(=O)(=O)c1ccccc1)C(=O)NO (stereo not drawn) | 25.4 µM | 4.06 µM | – | 93.3 µM | 71.5 µM | 60.5 µM | 66.1 µM | 88.7 µM | – | – | – | –
0.054 µM | O=C(CCCCCCOc1no[n+]([O-])c1S(=O)(=O)c1ccccc1)NO | 9.93 µM | 4.27 µM | – | 7.73 µM | 9.33 µM | 1.21 µM | 4.69 µM | – | – | – | – | –
> 1000 µM | O=S(=O)(c1ccccc1)c1no[n+]([O-])c1S(=O)(=O)c1ccccc1 | – | – | – | – | 0.69 µM | – | – | – | 3.3% | 53.4% | 43.29% | 0.53 µM
1.5 µM | O=C(COCCOc1no[n+]([O-])c1S(=O)(=O)c1ccccc1)NO | 8.15 µM | 7.4 µM | – | 8.69 µM | 6.79 µM | 15.1 µM | 13.4 µM | 19.8 µM | – | – | – | –
1.6 µM | O=C(NO)c1cccc(Oc2no[n+]([O-])c2S(=O)(=O)c2ccccc2)c1 | 6.49 µM | 1.86 µM | 4.67 µM | 4.19 µM | 2.6 µM | 13.9 µM | 4.57 µM | 9.94 µM | – | – | – | –
0.13 µM | O=C(CCCCOc1no[n+]([O-])c1S(=O)(=O)c1ccccc1)NO | 2.91 µM | 1.91 µM | 3.65 µM | 2.53 µM | 1.03 µM | 2.53 µM | 2.18 µM | 4.3 µM | – | – | – | –
> 1000 µM | CC(C)(COc1no[n+]([O-])c1S(=O)(=O)c1ccccc1)C(=O)NO | 12.5 µM | 6.08 µM | – | 6.88 µM | 5.01 µM | 9.55 µM | – | 18.3 µM | – | – | – | –
0.14 µM | O=C(Cc1ccc(Oc2no[n+]([O-])c2S(=O)(=O)c2ccccc2)cc1)NO | 5.01 µM | 1.8 µM | 10.4 µM | 4.13 µM | 13 µM | 15 µM | 14.2 µM | 22.2 µM | – | – | – | –
3.7 µM | O=C(/C=C/COc1no[n+]([O-])c1S(=O)(=O)c1ccccc1)NO | – | – | 8.74 µM | 19.1 µM | – | 47.7 µM | – | 57.7 µM | – | – | – | –
